We go through 2 compounds from US20260132103A1, “Bumetanide Derivatives for the Therapy of Stroke and Other Neurological Diseases/Disorders Involving NKCCs” (University of Pittsburgh - Of the Commonwealth System of …, priority 2018, published 2026).

What all share (type): in vivo, mouse
Data set [1] has as its system transient focal cerebral ischemia (tMCAO) in mice. Put plainly: Brain infarct volume and swelling after transient focal cerebral ischemia (tMCAO). The note with it: 24 h reperfusion, i.p.; for hemispheric edema (hemisphere swelling) / infarct volume: normotensive C57BL/6j mice, half dose at 3 h and 8 h reperfusion, BMT 10, STS5 13, STS66 12 mg/kg/day, mean±SD; for infarct volume: male and female combined. The method, then: (§1) FIGS. 1A-1C: Efficacy of NKCC1 inhibitors in reducing ischemic infarction, cerebral edema, and the post-stroke survival in normotensive mice after tMCAO (see Example 3). (1A) Experimental protocol and data collection. Transient middle cerebral artery occlusion (tMCAO) was induced in normal C57/b6 mice. DMSO, BMT (10 mg/kg body weight), STS5 (13 mg/kg) or STS66 (12 mg/kg) was administered via intraperitoneal injection (i.p.) as described in method. (1 B) Representative TTC staining images in normotensive mice at 24 h reperfusion with quantitative analysis of infarct volume. Data are mean±SD, n=6-13 (male, n=3-9; female, n=3-4, *p<0.05). Scale: 5 mm. (1C) Percentage hemisphere swelling at 24 h reperfusion. Data are mean±SD, n=6-13, *p<0.05. (1D) Body weight change during 1-14 days after tMCAO. Data are mean±SD, n=5-9 (male, n=4; female, n=2, *p<0.05). (1E) Survival curve during 1-14 day after tMCAO. Data are mean±SD, n=5-9 (male, n=3-7; female, n=2, *p<0.05).
(§2) Transient focal cerebral ischemia was induced in mice by intraluminal occlusion of the left middle cerebral artery (MCA) for 50 min as described previously (Chen H et al., 2005). Mice were anesthetized with 3% isoflurane in 70%: 30% N2O/O2 until they were unresponsive to the tail pinch test. Animals were then fitted with a nose cone blowing 1.5% isoflurane for anesthesia maintenance. The left common carotid artery was exposed and the occipital artery branches of the external carotid artery were isolated and coagulated. The internal carotid artery was isolated and the extracranial branch was dissected and ligated. A rubber silicon-coated monofilament suture (6-0) was introduced into the internal carotid artery lumen and gently advanced approximately 8-9 mm to block the MCA blood flow for 50 min. The rectal temperature was maintained at 37.0±0.5° C. during surgery through a temperature-controlled heating pad. Achievement of ischemia was confirmed by monitoring regional cerebral blood flow (rCBF) with laser speckle contrast imager (Pericam). For reperfusion, the suture was withdrawn after the MCAO. The incision was closed and the mouse recovered under a heating lamp to maintain the core temperature (36.0-37.0° C.) during the 30-60 min recovery period. After recovery, animals were returned to their cages with free access to food and water.
(§3) Vehicle: DMSO (2 ml/kg body weight/day), the NKCC1 inhibitor bumetanide (BMT, 10 mg/kg body weight/day in DMSO), bumetanide's prodrug STS5 (13 mg/kg body weight/day in DMSO), or the novel NKCC1 inhibitor STS66 according to the invention (12 mg/kg body weight/day in DMSO) was administered via intraperitoneal injection (i.p). The initial half dose of the drugs (BMT, STS5, STS66) was given at 3 h after the onset of reperfusion and the second half dose at 8 h reperfusion in the tMCAO model.
At 24 h post-reperfusion, mice were anesthetized with 5% isoflurane and then decapitated. Coronal brain slices (2 mm thickness) were stained with 1% 2,3,5-triphenyltetrazolium chloridemonohydrate (TTC) for 20-30 min and brain slices were scanned (Begum G et al., 2015). Ischemic lesions were traced in each slice in a blinded manner, and the total volume of infarction was calculated with correction for edema, as described by Swanson et al., 1990 using ImageJ software. Infarct areas were summed across all slices and multiplied by slice thickness to yield total infarct volume (mm^3). Brain swelling was determined with the following formula. For tMCAO: swelling (% contralateral hemispheric volume)=[(ipsilateral hemispheric volume)−(contralateral hemispheric volume)]/(contralateral hemispheric volume)×100, as described before (Guo Q G et al., 2009; Sunghee Cho et al., 2005).

For data set [2] the test system is unchanged. As to the kind of experiment: Body weight and survival 1-14 days after tMCAO. The note with it: for body weight changes: 1-14 days after tMCAO, versus DMSO Veh control; for mortality rate: between 1-14 days post tMCAO, BMT 10, STS5 13, STS66 12 mg/kg/day i.p. The method, then: as §1, §2, §3
Data set [3] shares this test system. As to the kind of experiment: Neurological function tests (sensorimotor deficits) after tMCAO. The note with it: normotensive mice, 1-14 days monitor and behavior test after stroke. An excerpt: (§4) FIGS. 2A-2D: Efficacy of NKCC1 inhibitors on improving neurological function in mice after tMCAO (see Example 3). (A) Neurological score, (B) corner test, (C) foot-fault test, and (D)-(E) adhesive tape test during 1-14 day after tMCAO. Data are mean±SD, n=4-9. *p<0.05 for DMSO vs STS66, **p<0.05 for DMSO vs STS5, ***p<0.05 for DMSO vs BMT, #p<0.05 for BMT vs STS66, ###p<0.05 for STS5 vs STS66.
Transient focal cerebral ischemia was induced in mice by intraluminal occlusion of the left middle cerebral artery (MCA) for 50 min as described previously (Chen H et al., 2005). Mice were anesthetized with 3% isoflurane in 70%: 30% N2O/O2 until they were unresponsive to the tail pinch test. Animals were then fitted with a nose cone blowing 1.5% isoflurane for anesthesia maintenance. The left common carotid artery was exposed and the occipital artery branches of the external carotid artery were isolated and coagulated. […]
Neurological functional deficits in mice were assessed in a blinded manner with the following tests: neurological score, adhesive tape removal test, corner test, cylinder test, and grid walking foot-fault test. These tests are established for identifying and quantifying sensorimotor deficits and postural asymmetries (Bederson J B, et al., 1986; Zhang L, et al., 2002; Schaar K L, et al., 2010).

Data set [4] has the same test system. Put plainly: Neurological score after tMCAO.
Excerpt: as §4, §2, §3
Neurological deficit grading system was used to evaluate neurological deficit at 1, 2, 3, 5, 7, 10 and 14 days after tMCAO as described previously (Bederson J B et al,1986).

Data set [5] shares this test system. Put plainly: Adhesive tape removal test after tMCAO. The note with it: days not given (tests on days 1-14); for adhesive tape removal time, last value of the span: end of the span 'x to y'; for adhesive tape removal time, first value of the given span: start of the span 'x to y'.
Excerpt: as §4, §2, §3
An adhesive tape removal test was used to measure somatosensory deficits. Two pieces of adhesive tape (4 mm×3 mm) were attached to the forepaws in an alternating sequence and with equal pressure by the experimenter before each trial. The removal time is defined as the time at which the animal removes the tape. The trial ended after the adhesive patch was removed or after 2 min had elapsed. Pre-operative training was carried twice per day for three days and were tested on day 1, 2, 3, 5, 7, 10 and 14 days after tMCAO (Bouet V, et al., 2009).

As to `CCCCNc1cc(CNCC(F)(F)F)cc(S(N)(=O)=O)c1Oc1ccccc1` [STS66, 3-(Butylamino)-2-phenoxy-5-[(2,2,2-trifluoroethylamino)methyl]benzenesulfonamide], in data set [1] (female mice only, STS5 13, STS66 12 mg/kg/day), the “infarct volume in female mice” value is given as 74.3±9.2 mm^3. Moreover, in data set [1], the “hemispheric edema (hemisphere swelling)” value came out at 14.1±6.1% and the infarct volume is 69.7±17.9 mm^3. In addition, in data set [2], the body weight changes entry is recorded as “no differences in the body weight changes” and the mortality rate result was “none of the STS66-treated mice died”. Also, the sensorimotor deficits result in data set [3] is on record as “improved all sensorimotor deficits”. This compound also had a neurological deficit score in data set [4] (day 1 post-reperfusion) of 4.0±0.0. Besides, the neurological deficit score in data set [4] (day 14 post-reperfusion) was determined as 1.2±0.4. In data set [5], the “adhesive tape removal time, last value of the span” value amounted to 10.3 ± 5.2 s and the “adhesive tape removal time, first value of the given span” value came to 29.7 ± 36.0 s.

For the compound `CCCCNc1cc(C(=O)O)cc(S(N)(=O)=O)c1Oc1ccccc1` [BMT, 3-(butylamino)-4-phenoxy-5-sulfamoylbenzoic acid, reference compound], in data set [1], the “hemispheric edema (hemisphere swelling)” value was determined as 15.4±5.9% and the infarct volume is on record as 65.2±21.7 mm^3. In data set [2], the body weight changes entry was “no differences in the body weight changes” and the mortality rate is around 16.7%. In data set [3], the sensorimotor deficits entry is given as “improved all sensorimotor deficits”. In data set [4] (day 5), this compound returned a neurological deficit score of 3.8±0.4. This compound displayed a neurological deficit score in data set [4] (day 10) of 2.5±0.5. For the same compound, in data set [5], the “adhesive tape removal time, last value of the span” value is 17.4 ± 7.6 s and the “adhesive tape removal time, first value of the given span” value is 109.4 ± 10.8 s.
